SMILES strings stand for the structures.

The experiment addresses T1, human vasopressin V1a receptor subtype (Homo sapiens, UniProt P37288).
T1 construct: host or cells: CHO cells (pZeoSV vector for the Thibonnier line)
Description: Vasopressin binding in Chinese Hamster Ovary cell membranes expressing human vasopressin V1a subtype receptors. The following applies: 100 nM, CHO cell membranes, [3H]Manning ligand, values without parentheses. An outline of the steps: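 Displacement of [3H]Manning ligand (8 nM working solution) from human V1a receptors in CHO cell membranes, 25–50 μg protein per well. Incubation ran 60 min at room temperature in 50 mM Tris-HCl pH 7.4 with protease inhibitors, followed by filtration and scintillation counting. Results are given as IC50 or percent inhibition.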

T1 sequence (P37288 whole entry): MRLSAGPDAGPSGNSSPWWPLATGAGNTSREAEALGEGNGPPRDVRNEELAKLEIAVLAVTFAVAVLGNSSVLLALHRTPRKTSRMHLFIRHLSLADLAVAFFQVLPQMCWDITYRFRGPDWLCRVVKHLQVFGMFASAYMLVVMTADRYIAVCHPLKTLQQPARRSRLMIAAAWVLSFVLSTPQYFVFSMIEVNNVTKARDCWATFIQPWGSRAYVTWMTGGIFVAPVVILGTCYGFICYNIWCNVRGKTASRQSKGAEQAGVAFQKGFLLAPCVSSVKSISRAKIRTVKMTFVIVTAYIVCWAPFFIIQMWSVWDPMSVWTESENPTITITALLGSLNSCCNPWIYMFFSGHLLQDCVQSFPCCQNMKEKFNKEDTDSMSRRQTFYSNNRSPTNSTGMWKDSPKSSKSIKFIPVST

One may read the inhibition as the drop in the measured response relative to a control, in per cent. As for `COc1cccc(-c2ccc(C(=O)N3Cc4ccc(C(=O)N5CCN(CCN6CCOCC6)CC5)n4Cc4ccccc43)cc2C)c1` [Example 208, {10-[(3′-Methoxy-2-methyl[1,1′-biphenyl]-4-yl)carbonyl]-10,11-dihydro-5H-pyrrolo[2,1-c][1,4]benzodiazepin-3-yl}{4-[2-(4-morpholinyl)ethyl]-1-piperazinyl}methanone], the inhibition at 0.1 µM came out at 20%.
Next, `COc1cc(-c2ccccc2C)c(Cl)cc1C(=O)N1Cc2ccc(C(=O)N3CCN(C(C)C)CC3)n2Cc2ccccc21` [Example 238, {10-[(6-Chloro-3-methoxy-2′-methyl[1,1′-biphenyl]-4-yl)carbonyl]-10,11-dihydro-5H -pyrrolo[2,1-c][1,4]benzodiazepin-3-yl}(4-isopropyl-1-piperazinyl)methanone]: 3%; `COc1ccccc1-c1ccc(C(=O)N2Cc3ccc(C(=O)N(C)C4CCN(C)CC4)n3Cc3ccccc32)cc1C` [Example 175, 10-[(2′-Methoxy-2-methyl[1,1′-biphenyl]-4-yl)carbonyl]-N-methyl-N-(1-methyl-4-piperidinyl)-10,11-dihydro-5H-pyrrolo[2,1-c][1,4]benzodiazepine-3-carboxamide]: 28%; `CN(C)CCN1CCN(C(=O)c2ccc3n2Cc2ccccc2N(C(=O)c2ccc(-c4cccc5ccccc45)cc2Cl)C3)CC1` [Example 205, {10-[2-Chloro-4-(1-naphthyl)benzoyl]-10,11-dihydro-5H-pyrrolo[2,1-c][1,4]benzodiazepin-3-yl}{4-[2-(dimethylamino)ethyl]-1-piperazinyl}methanone]: -6%.
Take `COc1cc(C(=O)N2Cc3ccc(C(=O)N(C)C4CCN(C)C4)n3Cc3ccccc32)ccc1-c1ccccc1C` (stereo not drawn) [Example 189, 10-[(2-Methoxy-2′-methyl[1,1′-biphenyl]-4-yl)carbonyl]-N-methyl-N-(1-methyl-3-pyrrolidinyl)-10,11-dihydro-5H-pyrrolo[2,1-c][1,4]benzodiazepine-3-carboxamide]: the inhibition at 0.1 µM was 83%.
With `COc1cc(-c2ccccc2C(F)(F)F)c(Cl)cc1C(=O)N1Cc2ccc(C(=O)O)n2Cc2ccccc21` [Example 15, 10-{[6-Chloro-3-methoxy-2′-trifluoromethyl-[1,1′-biphenyl]-4-yl]carbonyl}-10,11-dihydro-5H-pyrrolo[2,1-c][1,4]benzodiazepine-3-carboxylic acid], the inhibition at 0.1 µM was -8%.
`Cc1ccccc1-c1ccc(C(=O)N2Cc3ccc(C(=O)NCCC4CCCN4C)n3Cc3ccccc32)cc1` (stereo not drawn) [Example 166, 10-[(2′-Methyl[1,1′-biphenyl]-4-yl)carbonyl]-N-[2-(1-methyl-2-pyrrolidinyl)ethyl]-10,11-dihydro-5H-pyrrolo[2,1-c][1,4]benzodiazepine-3-carboxamide]: the inhibition at 0.1 µM worked out at 29%.
Then `COc1cccc(-c2cc(OC)c(C(=O)N3Cc4ccc(C(=O)NCCC5CCCN5C)n4Cc4ccccc43)cc2Cl)c1` (stereo not drawn) [Example 169, 10-[(6-Chloro-3,3′-dimethoxy[1,1′-biphenyl]-4-yl)carbonyl]-N-[2-(1-methyl-2-pyrrolidinyl)ethyl]-10,11-dihydro-5H-pyrrolo[2,1-c][1,4]benzodiazepine-3-carboxamide], with 9%; and `COc1cccc(-c2ccc(C(=O)N3Cc4ccc(C(=O)N5CCN(CCN6CCOCC6)CC5)n4Cc4ccccc43)cc2OC)c1` [Example 211, {10-[(2,3′-Dimethoxy[1,1′-biphenyl]-4-yl)carbonyl]-10,11-dihydro-5H-pyrrolo[2,1-c][1,4]benzodiazepin-3-yl}{4-[2-(4-morpholinyl)ethyl]-1-piperazinyl}methanone], with 45%; and `COc1ccccc1-c1ccc(C(=O)N2Cc3ccc(C(=O)NCCC4CCCN4C)n3Cc3ccccc32)cc1C` (stereo not drawn) [Example 162, 10-[(2′-Methoxy-2-methyl[1,1′-biphenyl]-4-yl)carbonyl]-N-[2-(1-methyl-2-pyrrolidinyl)ethyl]-10,11-dihydro-5H-pyrrolo[2,1-c][1,4]benzodiazepine-3-carboxamide], with 18%.
Next, `COc1cc(-c2ccccc2C)c(Cl)cc1C(=O)N1Cc2ccc(C(=O)NCCC3CCCN3C)n2Cc2ccccc21` (stereo not drawn) [Example 168, 10-[(6-Chloro-3-methoxy-2′-methyl[1,1′-biphenyl]-4-yl)carbonyl]-N-[2-(1-methyl-2-pyrrolidinyl)ethyl]-10,11-dihydro-5H-pyrrolo[2,1-c][1,4]benzodiazepine-3-carboxamide]: 8%.
Then `Cc1ccccc1-c1ccc(C(=O)N2Cc3ccc(C(=O)N4CCN(C(C)C)CC4)n3Cc3ccccc32)cc1C` [Example 233, {10-[(2,2′-Dimethyl[1,1′-biphenyl]-4-yl)carbonyl]-10,11-dihydro-5H-pyrrolo[2,1-c][1,4]benzodiazepin-3-yl}(4-isopropyl-1-piperazinyl)methanone], with 31%; and `COc1ccccc1-c1ccc(C(=O)N2Cc3ccc(C(=O)N(C)C4CCN(C)C4)n3Cc3ccccc32)cc1C` (stereo not drawn) [Example 185, 10-[(2′-Methoxy-2-methyl[1,1′-biphenyl]-4-yl)carbonyl]-N-methyl-N-(1-methyl-3-pyrrolidinyl)-10,11-dihydro-5H-pyrrolo[2,1-c][1,4]benzodiazepine-3-carboxamide], with 37%.
Take `Cc1ccccc1-c1ccc(C(=O)N2Cc3ccc(C(=O)N4CCN(CCN5CCOCC5)CC4)n3Cc3ccccc32)cc1` [Example 209, {10-[(2′-Methyl[1,1′-biphenyl]-4-yl)carbonyl]-10,11-dihydro-5H-pyrrolo[2,1-c][1,4]benzodiazepin-3-yl}{4-[2-(4-morpholinyl)ethyl]-1-piperazinyl}methanone]: the inhibition at 0.1 µM amounted to 64%.
With `C=CCN1CCN(C(=O)c2ccc3n2Cc2ccccc2N(C(=O)c2ccc(-c4ccccc4C(F)(F)F)c(C)c2)C3)CC1` [Example 230, (4-Allyl-1-piperazinyl)(10-{[2-methyl-2′-(trifluoromethyl)[1,1′-biphenyl]-4-yl]carbonyl}-10,11-dihydro-5H-pyrrolo[2,1-c][1,4]benzodiazepin-3-yl)methanone], the inhibition at 0.1 µM was 3%.
Next, `COc1cc(C(=O)N2Cc3ccc(C(=O)N4CCN(CCN5CCOCC5)CC4)n3Cc3ccccc32)ccc1-c1ccccc1C` [Example 210, {10-[(2-Methoxy-2′-methyl[1,1′-biphenyl]-4-yl)carbonyl]-10,11-dihydro-5H-pyrrolo[2,1-c][1,4]benzodiazepin-3-yl}{4-[2-(4-morpholinyl)ethyl]-1-piperazinyl}methanone]: 39%; `Cc1ccccc1-c1ccc(C(=O)N2Cc3ccc(C(=O)N4CCN(CCN(C)C)CC4)n3Cc3ccccc32)cc1` [Example 200, {4-[2-(Dimethylamino)ethyl]-1-piperazinyl}{10-[(2′-methyl[1,1′-biphenyl]-4-yl)carbonyl]-10,11-dihydro-5H-pyrrolo[2,1-c][1,4]benzodiazepin-3-yl}methanone]: 64%.
Regarding `COc1cc(C(=O)N2Cc3ccc(C(=O)N4CCN(CCN(C)C)CC4)n3Cc3ccccc32)ccc1-c1cccc2ccccc12` [Example 203, {4-[2-(Dimethylamino)ethyl]-1-piperazinyl}{10-[3-methoxy-4-(1-naphthyl)benzoyl]-10,11-dihydro-5H-pyrrolo[2,1-c][1,4]benzodiazepin-3-yl}methanone], the inhibition at 0.1 µM worked out at 4%.
`COc1cc(-c2ccccc2C)c(Cl)cc1C(=O)N1Cc2ccc(C(=O)N3CCN(CCN4CCOCC4)CC3)n2Cc2ccccc21` [Example 217, {10-[(6-Chloro-3-methoxy-2′-methyl[1,1′-biphenyl]-4-yl)carbonyl]-10,11-dihydro-5H -pyrrolo[2,1-c][1,4]benzodiazepin-3-yl}{4-[2-(4-morpholinyl)ethyl]-1-piperazinyl}methanone]: the inhibition at 0.1 µM is 21%.
Next, `Cc1cc(C(=O)N2Cc3ccc(C(=O)N4CCN(C(C)C)CC4)n3Cc3ccccc32)ccc1-c1ccccc1C(F)(F)F` [Example 240, (4-Isopropyl-1-piperazinyl)(10-{[2-methyl-2′-(trifluoromethyl)[1,1′-biphenyl]-4-yl]carbonyl}-10,11-dihydro-5H-pyrrolo[2,1-c][1,4]benzodiazepin-3-yl)methanone]: 1%.
Then `COc1cccc(-c2ccc(C(=O)N3Cc4ccc(C(=O)N5CCN(C(C)C)CC5)n4Cc4ccccc43)cc2C)c1` [Example 235, (4-Isopropyl-1-piperazinyl){10-[(3′-methoxy-2-methyl[1,1′-biphenyl]-4-yl)carbonyl]-10,11-dihydro-5H-pyrrolo[2,1-c][1,4]benzodiazepin-3-yl}methanone], with 9%; and `COc1ccccc1-c1ccc(C(=O)N2Cc3ccc(C(=O)O)n3Cc3ccccc32)cc1C` [Example 9, 10-[(2′-Methoxy-2-methyl-[1,1′-biphenyl]-4-yl)carbonyl]-10,11-dihydro-5H-pyrrolo[2,1-c][1,4]benzodiazepine-3-carboxylic acid], with 10%; and `Cc1ccccc1-c1ccc(C(=O)N2Cc3ccc(C(=O)N4CCN(CCN5CCOCC5)CC4)n3Cc3ccccc32)cc1C` [Example 218, {10-[(2,2′-Dimethyl[1,1′-biphenyl]-4-yl)carbonyl]-10,11-dihydro-5H-pyrrolo[2,1-c][1,4]benzodiazepin-3-yl}{4-[2-(4-morpholinyl)ethyl]-1-piperazinyl}methanone], with 45%.
Then `COc1ccccc1-c1ccc(C(=O)N2Cc3ccc(C(=O)N(C)C4CCN(C)C4)n3Cc3ccccc32)cc1OC` (stereo not drawn) [Example 193, 10-[(2,2′-Dimethoxy[1,1′-biphenyl]-4-yl)carbonyl]-N-methyl-N-(1-methyl-3-pyrrolidinyl)-10,11-dihydro-5H-pyrrolo[2,1-c][1,4]benzodiazepine-3-carboxamide], with 41%.

Values taken from patent publication US7109193B2, “Tricyclic diazepines tocolytic oxytocin receptor antagonists” (Wyeth, priority 2001, dated 2006).
